Reference: publication PMC4603696, “Discovery and characterization of novel small-molecule inhibitors targeting nicotinamide phosphoribosyltransferase” (Scientific Reports, 2015)
“Also recorded” adds a separate entry of the source. Like-named read-outs stand apart in the source and are kept apart here.

What was measured:
[1] = target: T1, NMNAT (Mus musculus, UniProt Q9EPA7); assay: Isothermal titration calorimetry (ITC); assay type: binding; conditions: 554 μM MS0 into 25 μM protein, 25 °C
T1 construct: His-tag; made in house; host or cells: E. coli BL21-CodonPlus (DE3)-RIL
T1 sequence (Q9EPA7 whole entry): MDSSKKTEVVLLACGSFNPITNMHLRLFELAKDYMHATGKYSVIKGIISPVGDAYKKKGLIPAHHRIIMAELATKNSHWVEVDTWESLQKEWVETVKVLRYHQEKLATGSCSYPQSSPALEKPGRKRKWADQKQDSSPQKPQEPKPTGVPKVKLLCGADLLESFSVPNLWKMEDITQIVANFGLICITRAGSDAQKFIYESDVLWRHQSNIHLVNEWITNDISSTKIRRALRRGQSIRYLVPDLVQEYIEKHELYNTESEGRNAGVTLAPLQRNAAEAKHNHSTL
Description: Thermodynamic parameters of small molecule binding to protein were determined using a MicroCal VP-ITC calorimeter. NMNAT protein solutions were ultrafiltrated in Amicon Ultra-0.5 Centrifugal Filter Unit (Merck Millipore) against buffer [20 mM Tris (pH 7.5), 20 mM NaCl], which was subsequently used to prepare a matched compound solution. […] Measurements were performed at 25 °C with spacing of 90 s between injections.
Pr otei n e xp ressi on andpur ification
Prot eins were expres se d and pur ified by our pr e vi ous methods2,3. […]
The pur ity of the pr ot ein was more tha n 90% de term ine d by SDS-PAGE and Coo massi e Blue (Tiange n, C hi na) staining and f ur the r by w est ern bl ot a na lysi s (Fig. S1).
High t hrou ghput sc reen ing (HTS)
HTS was pe rfor med usi ng our previ ously repor ted method 3. 0.5 μl st oc k of each com poun d (1 mM DMSO st oc k) was transf erred to a 96-well PCR pl ate for sc ree ni ng. […] Fina lly, 85 μl mixt ur es in each well were transf erred int o a flat-bottom 96-well black plate (Greiner) , and the fluoresc enc e (F) was measured usi ng a Teca n Inf inity M200 pl ate reader (Tecan Group Lt d.) by se tting the exc itation and emissi on wave leng th to 382 nm and 445nm respe ctive ly. […]

[2] = system: Huh7-C cells; assay: CCK-8 assay in stem-like human hepatoma cell line Huh7-C; assay type: cell-based; conditions: 60 h, read-out: CCK-8 assay in Huh7-C: IC50
Description: Cellc ount ing k it-8 (CCK-8) assa y
Cell vi ability was de termine d by ou r previ ous method9 usi ng the Cell Counting Kit-8 (CCK -8, […]
10 μl CCK-8 sol ution was adde d to the cul ture medium and inc ub ated at 37 °C for 1 h. Th e absor banc e at 450 nm (A450) was de tected by a pl ate reade r. Each e xperi ment w as carr ied out i n t riplic ate i n thr ee r eplic ate w ells.

[3] = system: osteosarcoma cell line U2OS; assay: SRB assay in U2OS; assay type: cell-based, human; conditions: 72 hours
Description: (§1) Sulfor hod am ine B p rotei n st ai ning (SRB) assay
(§2) Cell pr oliferat ion was eva lua ted by sul for hod amine B pr ot ein st aini ng (SRB) assa y10-12.
(§3) Briefly, cel ls were se ede d int o 96-well pl ates, cul tur ed overni ght , and trea ted with correspond ing com poun ds for 72 h. Cells were the n fixe d with 10% trichl or oa cetic aci d and st ained with sul for hoda mine B (Sigm a). Sul for hoda mine B in the cells was di sso lved in 10 mmol/L Tris-HCl and was measured at 515 nm usi ng a multiw ell spect ropho tometer (VERSA max, Mol ecul ar Devi ces, Sunnyva le, CA). The inhi bi tion rat e on cell pr olif eratio n was cal culated for each well as (A515contr ol cells-A 515tr eated cells)/A515contr ol cells×100 % (A515:
(§4) OD va lue at 515 nm ). The averag e IC50 va lue s were de termine d by Logit method from at leas t t hr eei nde pe nde nt test s.

[4] = system: HepG2 cells; assay: Sulforhodamine B protein staining (SRB) assay in HepG2; assay type: cell-based, human; conditions: for IC50: Homo sapiens
Description: as §1, §2, §3, §4

[5] = system: HCT116 cells; assay: SRB assay in HCT116; assay type: cell-based; conditions: Homo sapiens, HCT-116, read-out: anti-proliferation IC50, initial screen
Description: as §1, §2, §3, §4

SMILES: O=S(=O)(c1ccc(NC(=S)NCc2cccnc2)cc1)N1CCCCC1 [MS0]
- interaction with NMNAT by ITC [1]: did not detect an interaction; also recorded: does not show detectable interaction
- IC50 [2]: 0.722 ± 0.0363 µM
- growth inhibition (SRB, in words) [3]: potent growth inhibition
- growth inhibition (SRB, in words) ([4]; HepG2, 72 hours): potent growth inhibition
- IC50 ([4]; HepG2, 72 h, read-out: SRB assay in HepG2: IC50, HepG2, second test, 2-fold concentration gradient, 72 hours): ~3 µM
- IC50 ([4]; HepG2, read-out: anti-proliferation IC50, initial screen, HepG2, SRB, 10-fold concentration gradient): < 5 µM
- IC50 [5]: < 5 µM
